What is called IC50 is the point on the concentration scale where inhibition reaches its midpoint.

For assay [1], the target named is T1, BACE1 (Homo sapiens, UniProt P56817).
T1 construct: endogenous in cells; host or cells: HEK293 APP cells
The assay can be described thus: Cellular Aβ-lowering assay (Abeta 40 AlphaLISA, HEK293 APP cells). The format is cell-based. The note with it: 18-20 hrs incubation, Aβ 40 in culture supernatants, read-out: BACE1 cell act. Aβ40 IC50. As to the method: Cellular Aβ-Lowering Assay:
The Abeta 40 AiphaLISA Assay can be used. The HEK293 APP cells were seeded in 96 well Microtiter plates in cell culture medium (Iscove's, plus 10% (v/v) fetal bovine serum, penicillin/streptomycin) to about 80% confluency and the compounds were added at a 3× concentration in ⅓ volume of culture medium (final DMSO concentration was kept at 1% v/v). After 18-20 hrs incubation at 37° C. and 5% CO2 in a humidified incubator, the culture supernatants were harvested for the determination of Aβ 40 concentrations using Perkin-Elmer Human Amyloid beta 1-40 (high specificity) Kit (Cat # AL275C).
In a Perkin-Elmer White Optiplate-384 (Cat #6007290), 2 ul culture supernatants were combined with 2 μl of a 10× AlphaLISA Anti-hABAcceptor beads+Biotinylated Antibody Anti-AD 1-40 Mix (50 μg/mL/5 nM). After 1 hour room temperature incubation, 16 μl of a 1.25× preparation of Streptavidin (SA) Donor beads (25 μg/mL) were added and incubated for 30 minutes in the Dark. Light Emission at 615 nm was then recorded using EnVision-Alpha Reader. Levels of Aβ 40 in the culture supernatants were calculated as percentage of maximum signal (cells treated with 1% DMSO without inhibitor). The IC50 values were calculated using the Excel XLfit software.
In general terms: In Alpha technology, singlet oxygen from a donor bead excites a nearby acceptor bead.

Assay [2] deals with Aβ40. The assay can be described thus: Lowering of Aβ40 in brain of wild-type mice. In kind it is in vivo. The note with it: female C57Bl/6J mice, 30 mg/kg per os, 4 h, brain Aβ40 as percentage of the vehicle group; for response vs control in vivo at 30 mg/kg: Mus musculus, po, read-out: Aβ40 (wt mice, brain). As to the method: Lowering of Aβ40 in Brain of Wild-Type Mice:
Animals and Housing Conditions.
Animals were maintained in a 12/12 h light/dark cycle, with lights starting at 6 a.m., and experiments were conducted during the light phase, Animal housing and experimental procedures were in line with ethical and legal guidelines and were authorized by local veterinary authorities.
Female C57Bl/6J mice were treated with a dose of 30 mg/kg of the compounds, 3-4 animals per treatment group. The test compound was dissolved in 5% EtOH, 10% Solutol, and was applied per os at 10 mL/kg. After 4 h, the animals were sacrificed and brain and plasma were collected. The brain was cut into halves and immediately frozen on dry ice. Brain was used for measurement of Aβ40 and plasma was used for determination of compound exposure. […] Brain tissue was homogenized in 2% DEA buffer in a Roche MagnaLyser (20″, 4000 rpm) and subsequently centrifuged for 1 h at 100000 g. DEA was reduced to 0.2% in 50 mM NaCl and one-half of the DEA lysate was passed over an Oasis Solid phase extraction plate (Waters; cat. no. 186000679), which had been activated with MeOH and equilibrated in dH2O (1 mL each). After washes in 10% and 30% MeOH (1 mL each), the Aβ-peptides were eluted in 0.8 mL of 2% NH4OH in 90% MeOH. The eluate was dried over a N2 flow, and the dried sample was reconstituted in 30 μL of AlphaLISA assay buffer. Aβ40 was determined by an AlphaLISA assay (Perkin-Elmer). In a white 96-well, half area microplate (Perkin-Elmer cat. no. 6005561), 20 μL of the reconstituted sample were mixed with 5 μL of biotinylated BAP-24 (specific for C-terminus of Aβ40) (Brockhaus, M.; Onmberg, J.; Rohrig, S.; Loetscher, H.; Wittenburg, N.; Baumeister, R.; Jacobsen, H.; Haass, C. Caspasemediated cleavage is not required for the activity of presenilins in amyloidogenesis and NOTCH signaling. NeuroReport 1998, 9, 1481-1486.) stock=4.4 mg/mL, f.c.5.5 μg/mL), and 5 μL 252Q6 acceptor beads (252Q6 antibody, Invitrogen AMB0062) had been previously conjugated with AlphaLISA Acceptor beads (Perkin-Elmer cat. no. 6772002); final dilution 1:500). The mix was incubated for 1 h at RT in the dark. Then 20 μL of Streptavin-coated Donor Beads (Perkin-Elmer cat. no. 6760002, final dilution 1:125) were added and this final mix was incubated in the dark for another 30 min at RT before RFU was measured in an AlphaScreen Reader (Perkin-Elmer Envision 2104). The value obtained for A40 in the treated animals was related to the value in the vehicle group and is given in %. Alternatively a commercial ELISA was used for Aβ40 determination (Wako ELISA: (“Human/Rat 3 Amyloid (40) ELISA kit Wako II”; cat nr. 294-64701) following the manufacture's instruction. Also here the Aβ-lowering efficacy was calculated as percentage of the vehicle group.

T1 sequence (P56817 46-501): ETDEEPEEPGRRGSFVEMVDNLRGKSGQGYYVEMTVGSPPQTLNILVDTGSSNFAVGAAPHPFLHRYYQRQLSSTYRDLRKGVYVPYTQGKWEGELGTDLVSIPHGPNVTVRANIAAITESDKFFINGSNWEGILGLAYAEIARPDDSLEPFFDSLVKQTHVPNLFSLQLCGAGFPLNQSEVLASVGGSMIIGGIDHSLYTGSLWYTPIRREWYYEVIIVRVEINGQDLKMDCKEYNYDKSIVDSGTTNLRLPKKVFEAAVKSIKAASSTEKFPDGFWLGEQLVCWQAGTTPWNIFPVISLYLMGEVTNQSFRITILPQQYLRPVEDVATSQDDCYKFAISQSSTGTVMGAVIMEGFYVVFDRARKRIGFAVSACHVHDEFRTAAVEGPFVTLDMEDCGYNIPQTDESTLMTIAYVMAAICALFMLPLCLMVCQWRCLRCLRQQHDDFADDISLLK

In the case of `CC1(C)C(N)=N[C@](C)(c2cc(NC(=O)c3ncc(C#N)cc3Cl)ccc2F)[C@@H]2CCN=[S@@]21=O` [Example 2AB, N-(3-((3aS,4R,8R)-6-amino-4,7,7-trimethyl-8-oxido-3,3a,4,7-tetrahydro-2H-isothiazolo[1,5-a][1,4]thiazin-4-yl)-4-fluorophenyl)-3-chloro-5-cyanopicolinamide], the IC50 in assay [1] amounted to 1 nM. The response vs control in vivo at 30 mg/kg in assay [2] worked out at 80%.

Turning to `CC1(C)C(N)=N[C@](C)(c2cc(NC(=O)c3ncc(Cl)cc3Cl)ccc2F)[C@@H]2CCN=[S@@]21=O` [Example 3AB, N-(3-((3aS,4R,8R)-6-amino-4,7,7-trimethyl-8-oxido-3,3a,4,7-tetrahydro-2H-isothiazolo[1,5-a][1,4]thiazin-4-yl)-4-fluorophenyl)-3,5-dichloropicolinamide], the IC50 in assay [1] was determined as 1 nM. In addition, in assay [2], the response vs control in vivo at 30 mg/kg was 49%.

Take `CC1(C)C(N)=N[C@](C)(c2cc(NC(=O)c3ccc(C#N)cc3Cl)ccc2F)[C@@H]2CCN=[S@@]21=O` [Example 4AB, N-(3-((3aS,4R,8R)-6-amino-4,7,7-trimethyl-8-oxido-3,3a,4,7-tetrahydro-2H-isothiazolo[1,5-a][1,4]thiazin-4-yl)-4-fluorophenyl)-2-chloro-4-cyanobenzamide]: the IC50 in assay [1] was 13.1 nM. In addition, the response vs control in vivo at 30 mg/kg in assay [2] turned out to be 102%.

As for `CC1(C)C(N)=N[C@](C)(c2cc(NC(=O)c3cnc(OCC(F)F)cn3)ccc2F)[C@@H]2CCN=[S@@]21=O` [Example 7AB, N-(3-((3aS,4R,8R)-6-amino-4,7,7-trimethyl-8-oxido-3,3a,4,7-tetrahydro-2H-isothiazolo[1,5-a][1,4]thiazin-4-yl)-4-fluorophenyl)-5-(2,2-difluoroethoxy)pyrazine-2-carboxamide], the IC50 in assay [1] came out at 0.4 nM. Moreover, the response vs control in vivo at 30 mg/kg in assay [2] is 42%.

As to `CC1(C)C(N)=N[C@](C)(c2cc(NC(=O)c3ncc(OC(F)F)cc3Cl)ccc2F)[C@@H]2CCN=[S@@]21=O` [Example 13AB, N-(3-((3aS,4R,8R)-6-amino-4,7,7-trimethyl-8-oxido-3,3a,4,7-tetrahydro-2H-isothiazolo[1,5-a][1,4]thiazin-4-yl)-4-fluorophenyl)-3-chloro-5-(difluoromethoxy)picolinamide], the IC50 in assay [1] is 0.3 nM. Also, the response vs control in vivo at 30 mg/kg in assay [2] stood at 39%.

Take `COc1cnc(C(=O)Nc2ccc(F)c([C@@]3(C)N=C(N)C(C)(C)[S@@]4(=O)=NCC[C@@H]34)c2)cn1` [Example 14AB, N-(3-((3aS,4R,8R)-6-amino-4,7,7-trimethyl-8-oxido-3,3a,4,7-tetrahydro-2H-isothiazolo[1,5-a][1,4]thiazin-4-yl)-4-fluorophenyl)-5-methoxypyrazine-2-carboxamide]: the IC50 in assay [1] amounted to 0.5 nM. In assay [2], the response vs control in vivo at 30 mg/kg is 3%.

Regarding `CC1(C)C(N)=N[C@](C)(c2cc(NC(=O)c3cnc(OC(F)F)cn3)ccc2F)[C@@H]2CCN=[S@@]21=O` [Example 15AB, N-(3-((3aS,4R,8R)-6-amino-4,7,7-trimethyl-8-oxido-3,3a,4,7-tetrahydro-2H-isothiazolo[1,5-a][1,4]thiazin-4-yl)-4-fluorophenyl)-5-(difluoromethoxy)pyrazine-2-carboxamide], in assay [1], the IC50 was found to be 0.2 nM. Also, in assay [2], the response vs control in vivo at 30 mg/kg was found to be 20%.

`CC1(C)C(N)=N[C@](C)(c2cc(NC(=O)c3ccc(F)cn3)ccc2F)[C@@H]2CCN=[S@@]21=O` [Example 17AB, N-(3-((3aS,4R,8R)-6-amino-4,7,7-trimethyl-8-oxido-3,3a,4,7-tetrahydro-2H-isothiazolo[1,5-a][1,4]thiazin-4-yl)-4-fluorophenyl)-5-fluoropicolinamide]: the IC50 in assay [1] turned out to be 0.3 nM. Also, the response vs control in vivo at 30 mg/kg in assay [2] is 40%.

For the compound `CC1(C)C(N)=N[C@](C)(c2cc(NC(=O)c3cnc(OCC(F)(F)C(F)F)cn3)ccc2F)[C@@H]2CCN=[S@@]21=O` [Example 22AB, N-(3-((3aS,4R,8R)-6-amino-4,7,7-trimethyl-8-oxido-3,3a,4,7-tetrahydro-2H-isothiazolo[1,5-a][1,4]thiazin-4-yl)-4-fluorophenyl)-5-(2,2,3,3-tetrafluoropropoxy)pyrazine-2-carboxamide], in assay [1], the IC50 is 0.2 nM. For the same compound, the “Aβ40 (wt mice, brain)” value in assay [2] came out at 51%.

For the compound `CCOc1ccc(C(=O)Nc2ccc(F)c([C@@]3(C)N=C(N)C(C)(C)[S@@]4(=O)=NCC[C@@H]34)c2)nc1` [Example 25AB, N-(3-((3aS,4R,8R)-6-amino-4,7,7-trimethyl-8-oxido-3,3a,4,7-tetrahydro-2H-isothiazolo[1,5-a][1,4]thiazin-4-yl)-4-fluorophenyl)-5-ethoxypicolinamide], in assay [1], the IC50 came to 0.5 nM. Also, in assay [2], the response vs control in vivo at 30 mg/kg was determined as 40%.

With `COc1cnc(C(=O)Nc2ccc(F)c([C@@]3(C)N=C(N)C(C)(C)[S@@]4(=O)=NCC[C@@H]34)c2)c(C)c1` [Example 26AB, N-(3-((3aS,4R,8R)-6-amino-4,7,7-trimethyl-8-oxido-3,3a,4,7-tetrahydro-2H-isothiazolo[1,5-a][1,4]thiazin-4-yl)-4-fluorophenyl)-5-methoxy-3-methylpicolinamide], the IC50 in assay [1] was 0.6 nM. In addition, the response vs control in vivo at 30 mg/kg in assay [2] amounted to 11%.

Take `CCOc1cnc(C(=O)Nc2ccc(F)c([C@@]3(C)N=C(N)C(C)(C)[S@@]4(=O)=NCC[C@@H]34)c2)cn1` [Example 27AB, N-(3-((3aS,4R,8R)-6-amino-4,7,7-trimethyl-8-oxido-3,3a,4,7-tetrahydro-2H-isothiazolo[1,5-a][1,4]thiazin-4-yl)-4-fluorophenyl)-5-ethoxypyrazine-2-carboxamide]: the IC50 in assay [1] turned out to be 0.4 nM. The response vs control in vivo at 30 mg/kg in assay [2] amounted to 9%.

The values are drawn from US10696691B2, “BACE1 inhibitors” (Hoffmann-La Roche Inc., priority 2015, dated 2020).
